The text below walks through data of patent publication US20170198006A1, “PRMT5 INHIBITORS AND USES THEREOF” (Epizyme, Inc., priority 2014, published 2017).

T1 sequence (O14744 with tags, fused parts or gaps): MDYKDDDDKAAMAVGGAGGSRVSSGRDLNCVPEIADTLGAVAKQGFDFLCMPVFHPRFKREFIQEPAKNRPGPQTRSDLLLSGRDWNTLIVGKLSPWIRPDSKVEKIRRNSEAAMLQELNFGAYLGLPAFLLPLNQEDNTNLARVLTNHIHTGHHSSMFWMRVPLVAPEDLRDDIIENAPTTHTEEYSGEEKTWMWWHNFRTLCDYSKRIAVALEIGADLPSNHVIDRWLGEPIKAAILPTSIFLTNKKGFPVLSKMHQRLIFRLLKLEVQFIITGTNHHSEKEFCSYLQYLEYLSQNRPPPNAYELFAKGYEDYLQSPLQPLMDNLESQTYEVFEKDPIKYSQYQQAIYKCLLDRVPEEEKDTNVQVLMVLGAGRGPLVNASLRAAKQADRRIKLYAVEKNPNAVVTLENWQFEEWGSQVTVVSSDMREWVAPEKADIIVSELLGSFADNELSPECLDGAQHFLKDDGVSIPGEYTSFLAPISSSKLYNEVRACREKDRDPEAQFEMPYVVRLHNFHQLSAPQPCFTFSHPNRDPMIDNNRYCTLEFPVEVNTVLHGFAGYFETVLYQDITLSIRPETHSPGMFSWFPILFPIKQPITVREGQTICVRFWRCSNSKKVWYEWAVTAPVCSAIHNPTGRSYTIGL
T1 sequence (Q9BQA1 with tags, fused parts or gaps partner limits assumed): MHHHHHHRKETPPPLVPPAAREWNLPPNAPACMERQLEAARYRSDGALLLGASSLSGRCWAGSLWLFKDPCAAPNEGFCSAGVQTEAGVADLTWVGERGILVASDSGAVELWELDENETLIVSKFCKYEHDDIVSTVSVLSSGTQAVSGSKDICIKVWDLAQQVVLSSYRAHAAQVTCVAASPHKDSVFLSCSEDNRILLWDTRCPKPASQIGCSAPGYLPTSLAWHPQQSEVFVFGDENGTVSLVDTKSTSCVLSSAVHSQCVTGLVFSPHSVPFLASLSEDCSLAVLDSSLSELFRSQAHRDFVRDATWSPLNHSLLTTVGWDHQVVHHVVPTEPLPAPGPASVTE

This assay concerns the target T1, PRMT5/MEP50 (Homo sapiens, UniProt O14744).
T1 construct: Flag-PRMT5; made in house; host or cells: Spodoptera frugiperda (SF9), baculovirus
Description: PRMT5 Biochemical Assay (PRMT5/MEP50 enzyme assay on histone H4 peptide substrate, 3H-SAM Flashplate). Particulars: PRMT5 biochemical assay; read-out: Biochemical IC50. The source says:
S-adenosylmethionine (SAM), S-adenosylhomocysteine (SAH), bicine, KCl, Tween20, dimethylsulfoxide (DMSO), bovine skin gelatin (BSG), and Tris(2-carboxyethyl)phosphine hydrochloride solution (TCEP) were purchased from Sigma-Aldrich at the highest level of purity possible. ^3H-SAM was purchase from American Radiolabeled Chemicals with a specific activity of 80 Ci/mmol. 384-well streptavidin Flashplates were purchased from PerkinElmer.
Peptide representative of human histone H4 residues 1-15 was synthesized with a C-terminal linker-affinity tag motif and a C-terminal amide cap by 21st Century Biochemicals.
The amplified genes were sublconed into pENTR/D/TEV (Life Technologies) and subsequently transferred by Gateway™ attL×attR recombination to pDEST8 baculvirus expression vector (Life Technologies).
Protein over-expression was accomplished by infecting exponentially growing Spodoptera frugiperda (SF9) cell culture at 1.2×10^6 cell/ml with a 5000 fold dilution of BIIC stock. Infections were carried out at 27° C. for 72 hours, harvested by centrifugation, and stored at −80° C. for purification.
Flag-PRMT5/6His-MeP50 was eluted with 300 mM Imidazole in the same buffer.
General Procedure for PRMT5/MEP50 Enzyme Assays on Peptide Substrates.
The assays were all performed in a buffer consisting of 20 mM Bicine (pH=7.6), 1 mM TCEP, 0.005% BSG, and 0.002% Tween20, prepared on the day of use. […] DMSO (1 ul) was added to Columns 11, 12, 23, 24, rows A-H for the maximum signal control and 1 ul of SAH, a known product and inhibitor of PRMT5/MEP50, was added to columns 11, 12, 23, 24, rows I-P for the minimum signal control. A cocktail (40 ul) containing the PRMT5/MEP50 enzyme and the peptide was added by Multidrop Combi (Thermo-Fisher). The compounds were allowed to incubate with PRMT5/MEP50 for 30 min at 25 degrees Celsius, then a cocktail (10 ul) containing ^3H-SAM was added to initiate the reaction (final volume=51 ul). […] The assays were stopped by the addition of non-radioactive SAM (10 ul) to a final concentration of 600 uM, which dilutes the ^3H-SAM to a level where its incorporation into the peptide substrate is no longer detectable. 50 ul of the reaction in the 384-well polypropylene plate was then transferred to a 384-well Flashplate and the biotinylated peptides were allowed to bind to the streptavidin surface for at least 1 hour before being washed three times with 0.1% Tween20 in a Biotek ELx405 plate washer. The plates were then read in a PerkinElmer TopCount plate reader to measure the quantity of ^3H-labeled peptide bound to the Flashplate surface, measured as disintegrations per minute (dpm) or alternatively, referred to as counts per minute (cpm).
Where dpm=disintegrations per minute, cmpd=signal in assay well, and min and max are the respective minimum and maximum signal controls.
Where top and bottom are the normally allowed to float, but may be fixed at 100 or 0 respectively in a 3-parameter fit. The Hill Coefficient normally allowed to float but may also be fixed at 1 in a 3-parameter fit. Y is the % inhibition and X is the compound concentration.
Usually IC50 stands for the midpoint of a concentration-inhibition curve. `CN(C)CCN(C)C[C@H]1O[C@@H](n2cnc3c(N)ncnc32)[C@H](O)[C@@H]1O` [Compound 37-1]: the IC50 lay in the range of 101 to 1000 nM. The value for `CC(NCCN(C)C[C@H]1O[C@@H](n2cnc3c(N)ncnc32)[C@H](O)[C@@H]1O)c1ccccc1` (stereo partly drawn) [Compound 5-1] was 101 to 1000 nM.

As for `CN(CCNCCOc1cccc(F)c1)C[C@H]1O[C@@H](n2cnc3c(N)ncnc32)[C@H](O)[C@@H]1O` [Compound 73-1], the IC50 is 101 to 1000 nM. The result for `Cc1ccc(C(=O)CC2NC(N(C)CCN(C)c3ccccc3)=NC2=O)cc1` (stereo not drawn) [Compound 45-14] reads 10000 to 50000 nM; that for `CCN1CCN(C2=NC(=O)C(CC(=O)Nc3ccc(C)cc3)N2)CC1` (stereo not drawn) [Compound 5-14], 1000 to 10000 nM; that for `CN(CCc1c[nH]cn1)CCN(C)C[C@H]1O[C@@H](n2cnc3c(N)ncnc32)[C@H](O)[C@@H]1O` [Compound 47-1], 101 to 1000 nM. The value for `CN1CC[C@@H](N(C)C[C@H]2O[C@@H](n3cnc4c(N)ncnc43)[C@H](O)[C@@H]2O)C1` [Compound 86-1] was 101 to 1000 nM; that for `COc1ccc(C(=O)CC2NC(N3CCN(c4ccccc4)CC3)=NC2=O)cc1` (stereo not drawn) [Compound 38-14] was 1000 to 10000 nM. The value for `Cc1cc(Cl)ccc1NC(=O)CC1NC(N2CCN(c3ccccc3)CC2)=NC1=O` (stereo not drawn) [Compound 66-14] was 1000 to 10000 nM; that for `O=C(CC1NC(N2CCN(c3ccccc3)CC2)=NC1=O)Nc1ccccc1Cl` (stereo not drawn) [Compound 49-14] was 10000 to 50000 nM; that for `CC(=O)c1ccc(NC(=O)CC2NC(N3CCN(C)CC3)=NC2=O)cc1` (stereo not drawn) [Compound 26-14] was 10000 to 50000 nM.

As for `Cc1ccc(NC(=O)CC2NC(N3CCN(Cc4ccccc4)CC3)=NC2=O)cc1` (stereo not drawn) [Compound 9-14], the IC50 was in the range of 1000 to 10000 nM. The result for `COc1ccc(N2CCN(C3=NC(=O)C(CC(=O)Nc4ccccc4)N3)CC2)cc1` (stereo not drawn) [Compound 25-14] reads 10000 to 50000 nM; that for `CC(N)CCN(C)C[C@H]1O[C@@H](n2cnc3c(N)ncnc32)[C@H](O)[C@@H]1O` (stereo partly drawn) [Compound 22-1], 101 to 1000 nM; that for `Cc1ccc(NC(=O)CC2NC(N3CCc4ccccc4C3)=NC2=O)cc1` (stereo not drawn) [Compound 23-14], 1000 to 10000 nM. The result for `CN(CCNCc1ccc(Cl)cc1F)C[C@H]1O[C@@H](n2cnc3c(N)ncnc32)[C@H](O)[C@@H]1O` [Compound 19-1] reads 101 to 1000 nM; that for `CC(NCCN(C)C[C@H]1O[C@@H](n2cnc3c(N)ncnc32)[C@H](O)[C@@H]1O)c1ccc(Br)cc1` (stereo partly drawn) [Compound 18-1], less than 100 nM; that for `CN(CCNCCc1c(Cl)cccc1Cl)C[C@H]1O[C@@H](n2cnc3c(N)ncnc32)[C@H](O)[C@@H]1O` [Compound 72-1], less than 100 nM.

For `N#Cc1ccc(C(=O)CC2NC(N3CCN(c4ccccc4)CC3)=NC2=O)cc1` (stereo not drawn) [Compound 40-14], the IC50 is 1000 to 10000 nM. The value for `CN(CCNCc1ccc(F)cc1)C[C@H]1O[C@@H](n2cnc3c(N)ncnc32)[C@H](O)[C@@H]1O` [Compound 16-1] was less than 100 nM. Consider `O=C(CC1NC(N2CCN(c3ccccc3)CC2)=NC1=O)c1ccccc1` (stereo not drawn) [Compound 37-14], for which the IC50 lay within 101 to 1000 nM. The value for `CN(CCNCc1ccc(Cl)cc1Cl)C[C@H]1O[C@@H](n2cnc3c(N)ncnc32)[C@H](O)[C@@H]1O` [Compound 7-1] was 101 to 1000 nM; that for `Cc1ccc(C(=O)CC2NC(N3CCN(Cc4ccncc4)CC3)=NC2=O)cc1` (stereo not drawn) [Compound 44-14] was 1000 to 10000 nM; that for `Cc1ccc(C(=O)CC2NC(N3CCN(C)CC3)=NC2=O)cc1` (stereo not drawn) [Compound 27-14] was 1000 to 10000 nM. The value for `COc1cc(CNCCN(C)C[C@H]2O[C@@H](n3cnc4c(N)ncnc43)[C@H](O)[C@@H]2O)cc(OC)c1` [Compound 11-1] was 101 to 1000 nM. The value for `CCN(CC)CCN(C)C[C@H]1O[C@@H](n2cnc3c(N)ncnc32)[C@H](O)[C@@H]1O` [Compound 38-1] was 101 to 1000 nM; that for `CN(CCNCCc1ccccc1)C[C@H]1O[C@@H](n2cnc3c(N)ncnc32)[C@H](O)[C@@H]1O` [Compound 79-1] was 101 to 1000 nM; that for `Cc1ccccc1C(=O)CC1NC(N2CCN(c3ccccc3)CC2)=NC1=O` (stereo not drawn) [Compound 69-14] was 101 to 1000 nM. Turning to `CCCN(CCN(C)C[C@H]1O[C@@H](n2cnc3c(N)ncnc32)[C@H](O)[C@@H]1O)CC1CC1` [Compound 42-1], the IC50 lay within 101 to 1000 nM.

With `CN(CCNCc1ccc(Cl)cc1)C[C@H]1O[C@@H](n2cnc3c(N)ncnc32)[C@H](O)[C@@H]1O` [Compound 8-1], the IC50 was 101 to 1000 nM. The value for `CN(CCN1CCC(c2ccccc2)CC1)CC1OC(n2cnc3c(N)ncnc32)[C@H](O)[C@@H]1O` (stereo partly drawn) [Compound 43-1] was 101 to 1000 nM. For `CN(CCN(C)C[C@H]1O[C@@H](n2cnc3c(N)ncnc32)[C@H](O)[C@@H]1O)Cc1ccccc1` [Compound 9-1], the half-maximal inhibitory concentration (IC50) lay within 101 to 1000 nM. With `Cc1cccc(NC(=O)CC2NC(N3CCN(c4ccccc4)CC3)=NC2=O)c1` (stereo not drawn) [Compound 8-14], the IC50 fell in the range of 1000 to 10000 nM. The result for `Cc1ccc(C(=O)CC2NC(N(C)CCc3ccccc3)=NC2=O)cc1` (stereo not drawn) [Compound 41-14] reads 1000 to 10000 nM; that for `CN(CCNCCc1c[nH]c2ccccc12)C[C@H]1O[C@@H](n2cnc3c(N)ncnc32)[C@H](O)[C@@H]1O` [Compound 55-1], less than 100 nM. With `COCCNCCN(C)C[C@H]1O[C@@H](n2cnc3c(N)ncnc32)[C@H](O)[C@@H]1O` [Compound 59-1], the IC50 lay in the range of 101 to 1000 nM. The result for `CN(CCNCc1ccccc1)C[C@H]1O[C@@H](n2cnc3c(N)ncnc32)[C@H](O)[C@@H]1O` [Compound 12-1] reads 101 to 1000 nM.

`NCCN(CCCC(=O)O)C[C@H]1O[C@@H](n2cnc3c(N)ncnc32)[C@H](O)[C@@H]1O` [Compound 31-1]: the IC50 was less than 100 nM. The value for `CCN(CCN(C)C[C@H]1O[C@@H](n2cnc3c(N)ncnc32)[C@H](O)[C@@H]1O)Cc1ccncc1` [Compound 17-1] was less than 100 nM. For the compound `Cc1ccc(C(=O)CC2NC(N3CCN(c4ccccc4F)CC3)=NC2=O)cc1` (stereo not drawn) [Compound 30-14], the IC50 was 1000 to 10000 nM. The value for `CN1CCC(N(C)CCN(C)C[C@H]2O[C@@H](n3cnc4c(N)ncnc43)[C@H](O)[C@@H]2O)C1` (stereo partly drawn) [Compound 39-1] was 101 to 1000 nM.

For the compound `Cc1cnc(CN)n1Cc1ccccc1` [Compound 5-13], the IC50 lay in the range of 1000 to 10000 nM. The result for `Cc1cc(NC(=O)CC2NC(N3CCN(c4ccccc4)CC3)=NC2=O)ccc1Cl` (stereo not drawn) [Compound 74-14] reads 1000 to 10000 nM; that for `Nc1ncnc2c1ncn2[C@@H]1O[C@H](CN(CCCC(=O)OCc2ccccc2)CCNCCc2ccc(Cl)cc2)[C@@H](O)[C@H]1O` [Compound 78-1], less than 100 nM. As to `N#Cc1cccc(C(=O)CC2NC(N3CCN(c4ccccc4)CC3)=NC2=O)c1` (stereo not drawn) [Compound 46-14], the half-inhibitory concentration (IC50) was in the range of 1000 to 10000 nM. Take `CCOc1ccc(NC(=O)CC2NC(N3CCN(c4ccccc4F)CC3)=NC2=O)cc1` (stereo not drawn) [Compound 15-14]: the 50% inhibitory concentration (IC50) lay in the range of 1000 to 10000 nM. The result for `NCCCN(CC[C@H](N)C(=O)O)C[C@H]1O[C@@H](n2cnc3c(N)ncnc32)[C@H](O)[C@@H]1O` [Compound 23-1] reads less than 100 nM; that for `CN(CCNC1CCNCC1)C[C@H]1O[C@@H](n2cnc3c(N)ncnc32)[C@H](O)[C@@H]1O` [Compound 53-1], 101 to 1000 nM.

Turning to `CCSC[C@H]1O[C@@H](n2cnc3c(N)ncnc32)[C@H](O)[C@@H]1O` [Compound 94-1], the half-inhibitory concentration (IC50) was in the range of 101 to 1000 nM. The result for `CN(CCN1CCCN(Cc2ccccc2)CC1)C[C@H]1OC(n2cnc3c(N)ncnc32)[C@H](O)[C@@H]1O` (stereo partly drawn) [Compound 40-1] reads 101 to 1000 nM; that for `O=C(CC1NC(N2CCN(c3ccccc3)CC2)=NC1=O)Nc1cccc(Cl)c1Cl` (stereo not drawn) [Compound 51-14], 10000 to 50000 nM. For `CN(CCc1ccc(Cl)cc1)CCN(C)C[C@H]1O[C@@H](n2cnc3c(N)ncnc32)[C@H](O)[C@@H]1O` [Compound 52-1], the IC50 was in the range of 101 to 1000 nM. The result for `COc1ccccc1C(=O)CC1NC(N2CCC(c3ccccc3)CC2)=NC1=O` (stereo not drawn) [Compound 48-14] reads 101 to 1000 nM; that for `O=C(CC1NC(N2CCN(c3ccccc3)CC2)=NC1=O)NCC1CCOCC1` (stereo not drawn) [Compound 70-14], 10000 to 50000 nM.
